Laboratory results taken from ChEMBL document CHEMBL1132469 (J Med Chem, 1999).

Legend:
[1] = molecular target: T1, Histone deacetylase HD2 (Zea mays, UniProt Q94F81); test: Inhibition of maize Histone Deacetylase 2 (HD-2) activity (inactive at 40 uM)
T1 sequence (Q94F81 whole entry): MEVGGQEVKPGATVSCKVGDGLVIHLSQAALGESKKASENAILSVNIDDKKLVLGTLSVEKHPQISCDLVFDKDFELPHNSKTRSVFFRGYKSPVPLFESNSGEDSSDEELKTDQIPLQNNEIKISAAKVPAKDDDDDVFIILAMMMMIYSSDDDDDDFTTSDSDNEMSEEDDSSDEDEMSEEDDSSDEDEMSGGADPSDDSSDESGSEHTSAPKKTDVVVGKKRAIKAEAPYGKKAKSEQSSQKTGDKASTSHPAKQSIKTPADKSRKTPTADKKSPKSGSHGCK

[2] = molecular target: T1, Histone deacetylase HD2; test: Inhibition of maize Histone deacetylase 2 (HD-2) activity

IC50 [1]	IC50 [2]	SMILES
Not Active		CN(C)c1ccc(C(=O)Nc2ccc(CC(=O)NO)cc2)cc1
	180 nM	CN(C)c1ccc(C(=O)NCc2ccc(C(=O)NO)cc2)cc1
	100 nM	CN(C)c1ccc(C(=O)NCCCCCC(=O)NO)cc1
Not Active		O=C(O)CCCCCNC(=O)c1ccccc1
	2000 nM	CN(C)c1ccc(C(=O)NCCCCC(=O)NO)cc1
Not Active		CN(C)c1ccc(C(=O)Nc2ccc(CC(=O)O)cc2)cc1

SMILES	IC50 [1]	IC50 [2]
CN(C)c1ccc(C(=O)NCCCCCCC(=O)NO)cc1		100 nM
